Data reported in patent US20170015626A1, “TWO-PHOTON-ABSORBING COMPOUND” (OTSUKA ELECTRONICS CO., LTD., priority 2014, published 2017).

Test system: Hek293 cells
Assay: Fluorescence staining experiment on cells, observed by two-photon excitation fluorescence microscopy
Type: cell-based, Human
Details: for emission of a red fluorescence from the stained cells by two-photon excitation fluorescence microscopy: Hek293 cells stained at 1 μmol dm^−3 for 12 hours, band pass filter central wavelength 650 nm; for fluorescence staining of HeK293 cells: final concentration 1 μmol dm^−3, final DMSO 0.1% (v/v), incubated for 12 hours
Method: Human embryonic kidney cells, namely, Hek293 cells were used as model cells for staining. The Hek293 cells were cultured in Dulbecco's Modified Eagle's Medium (DMEM) containing 10% (v/v) fetal bovine serum and 1% (v/v) […] and streptomycin under conditions of 37° C. and 5% CO2.
For preparation of microscopic observation, Hek293 cells were subcultured on a 35-mm glass-based dish, to result in a cell density of 1×10^5 cells/dish. 24 hours after the subculture, adhesion of the cells to the dish was confirmed by microscopic observation. The medium was removed from the dish, and the resulting cells were then washed with a phosphate buffered saline (PBS) twice. 2 mL of DMEM medium not containing phenol red (final concentration of PY: 1 μmol dm^−3, final DMSO concentration: 0.1% (v/v)), to which 2 μL of dimethyl sulfoxide (DMSO) solution of the 1×10^−3 mol/dm^−3 naphthalene derivative (I), anthracene derivative (II) or pyrene derivative (III) had been added, was placed in the dish, and it was then incubated for 12 hours for staining. Immediately before microscopic observation, the medium containing the pigment was removed from the dish, and PBS was then used to wash the cells twice. After that, 2 mL of the DMEM medium not containing phenol red was added to the dish.
A two-photon excitation fluorescence microscope was produced using Optical Block (Hamamatsu Photonics K. K.). As a light source, Femtosecond titanium-sapphire laser (Mira900, Coherent) was used. A mirror unit equipped with a Galvano scanner for scanning a focal point, a short-pass dichroic mirror (FF750-SDi02-25×36, Semrock) having a cutoff wavelength at 750 nm, and a band pass filter (FF01-650/60-25, Semrock) having a central wavelength at 650 nm was inserted into the optical system. For detection of fluorescence, a photomultiplier tube (R928, Hamamatsu Photonics K. K.) was used, and DC was detected at an applied voltage of 1000 V, through a preamplifier (5 MHz)-equipped socket. USB-6251 BNC was used as DAQ, and Lab VIEW2011 (National Instruments) was used as a platform of the control program. As a sample stage, KZGO620-G was used, and as objective lens, infinity corrected objective lens with a magnification of 40 and NA of 1.15 was used.

Row | Structure (SMILES) | emission of a red fluorescence from the stained cells by two-photon excitation fluorescence microscopy | fluorescence staining of HeK293 cells
1 | C[n+]1ccc(/C=C/c2ccc3cc4cc(/C=C/c5cc[n+](C)cc5)ccc4cc3c2)cc1 [anthracene derivative (II)] | emission of a red fluorescence from the aforementioned cells was observed | could achieve the fluorescence staining of HeK293 cells
2 | C[n+]1ccc(/C=C/c2ccc3cc(/C=C/c4cc[n+](C)cc4)ccc3c2)cc1 [naphthalene derivative (I)] | emission of a red fluorescence from the aforementioned cells was observed | could achieve the fluorescence staining of HeK293 cells
3 | CCCCc1cc(C=Cc2cc[n+](C)cc2)c2ccc3c(CCCC)cc(C=Cc4cc[n+](C)cc4)c4ccc1c2c43.[I-].[I-] [pyrene derivative (III)] | emission of a red fluorescence from the aforementioned cells was observed | could achieve the fluorescence staining of HeK293 cells
